What all share (type): cell-based
One experiment has as its target hGcgR (Homo sapiens, UniProt P47871). The experiment in a line: Functional cAMP activation in the presence of 0.1% casein (no HSA). Particulars: read-out: Relative cAMP EC50, hGcgR.
The target of experiment [1] is T1, hGLP-1R (Homo sapiens, UniProt P43220). The description is as above. Particulars: read-out: Relative cAMP EC50, hGLP-1R.
In experiment [2] the target is T1, hGLP-1R. The experiment in a line: Functional cAMP activity in the presence of 1% HSA. The conditions noted are these: read-out: cAMP Rel EC50, hGLP-1R.
In experiment [3] the target is T2, hGIPR (Homo sapiens, UniProt P48546).
T2 sequence (P48546 22-466): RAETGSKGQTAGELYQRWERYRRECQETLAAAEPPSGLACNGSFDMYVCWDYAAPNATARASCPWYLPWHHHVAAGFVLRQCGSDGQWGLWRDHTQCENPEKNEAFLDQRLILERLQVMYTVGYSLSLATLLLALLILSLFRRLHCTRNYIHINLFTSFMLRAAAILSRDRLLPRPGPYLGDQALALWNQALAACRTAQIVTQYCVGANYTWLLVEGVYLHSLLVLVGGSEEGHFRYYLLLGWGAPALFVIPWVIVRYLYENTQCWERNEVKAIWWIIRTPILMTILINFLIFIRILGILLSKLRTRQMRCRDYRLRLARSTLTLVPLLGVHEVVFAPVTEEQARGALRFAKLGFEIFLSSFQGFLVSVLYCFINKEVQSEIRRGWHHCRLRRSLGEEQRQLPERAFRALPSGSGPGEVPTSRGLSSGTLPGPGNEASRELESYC
The experiment in a line: Functional cAMP activation in the presence of 0.1% casein (no HSA). The conditions noted are these: read-out: Relative cAMP EC50, hGIPR.

The target of the next experiment is human GcgR (Homo sapiens, UniProt P47871). The experiment in a line: Functional cAMP activity in the presence of 1% HSA. The conditions noted are these: read-out: cAMP Rel EC50, hGcgR.
Experiment [4] concerns the target T2, hGIPR. The experiment in a line: Functional cAMP activity in the presence of 1% HSA. The conditions noted are these: read-out: cAMP Rel EC50, hGIPR.
Setting [5] is: in the presence of 0.1% casein (no HSA), geometric mean.
Setting [6] is: 0.1% casein, no HSA, geometric mean.

Like-named read-outs stand apart in the source and are kept apart here. Starred links: 1 amine or outer side, 2 acyl side, 3 side chain; linkers in the order of their positions; H or OH if unused. Non-standard residues stand in square brackets, D forms with d. Residues, ends and D or L forms follow the SMILES beside them. Groups on a side chain read outwards from the residue. No end group written: not given here. *: point of attachment. C20 diacid = O=C(O)CCCCCCCCCCCCCCCCCCC(=O)*; C18 diacid = O=C(O)CCCCCCCCCCCCCCCCC(=O)*; Phe(4-CN) = N#Cc1ccc(C[C@H](N)C(=O)O)cc1; αMePhe(2-F) = C[C@](N)(Cc1ccccc1F)C(=O)O; γGlu = O=C(O)[C@H](CCC(=O)[*:2])N[*:1]; αMe4Pal = C[C@](N)(Cc1ccncc1)C(=O)O; αMeY = C[C@](N)(Cc1ccc(O)cc1)C(=O)O; 4Pal = N[C@@H](Cc1ccncc1)C(=O)O; αMeL = CC(C)C[C@](C)(N)C(=O)O; αMeS = C[C@](N)(CO)C(=O)O; Orn = NCCC[C@H](N)C(=O)O; AEEA = NCCOCCOCC(=O)O; Aib = CC(C)(N)C(=O)O
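For Relative cAMP EC50, hGIPR in this document: intracellular cAMP rise after 30 min at 37 °C read by HTRF against a standard curve, scaled between buffer alone (0%) and top control ligand concentration (100%), four-parameter fit.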
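For Relative cAMP EC50, hGLP-1R in this document: intracellular cAMP rise after 30 min at 37 °C read by HTRF, normalized between buffer only (0%) and maximal control ligand (100%), four-parameter variable-slope fit.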
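For Relative cAMP EC50, hGcgR in this document: intracellular cAMP rise after 30 min at 37 °C, read by HTRF against a cAMP standard curve, scaled from buffer only (0%) to maximal control ligand response (100%).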

human GcgR, sequence (P47871 26-477): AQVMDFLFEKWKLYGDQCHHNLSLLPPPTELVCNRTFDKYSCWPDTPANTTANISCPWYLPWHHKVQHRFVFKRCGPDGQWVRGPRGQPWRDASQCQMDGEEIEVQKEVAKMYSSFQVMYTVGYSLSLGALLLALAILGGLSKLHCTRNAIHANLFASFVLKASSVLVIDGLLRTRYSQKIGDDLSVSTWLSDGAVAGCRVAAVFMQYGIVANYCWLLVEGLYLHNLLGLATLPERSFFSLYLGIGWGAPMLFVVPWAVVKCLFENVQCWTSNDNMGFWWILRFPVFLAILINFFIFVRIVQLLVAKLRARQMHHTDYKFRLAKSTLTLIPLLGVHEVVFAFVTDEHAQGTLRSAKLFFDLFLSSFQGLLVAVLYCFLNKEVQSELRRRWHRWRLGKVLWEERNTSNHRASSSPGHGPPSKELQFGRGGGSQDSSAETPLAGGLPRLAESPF
hGcgR, sequence (P47871 26-477): as above
T1 sequence (P43220 24-463): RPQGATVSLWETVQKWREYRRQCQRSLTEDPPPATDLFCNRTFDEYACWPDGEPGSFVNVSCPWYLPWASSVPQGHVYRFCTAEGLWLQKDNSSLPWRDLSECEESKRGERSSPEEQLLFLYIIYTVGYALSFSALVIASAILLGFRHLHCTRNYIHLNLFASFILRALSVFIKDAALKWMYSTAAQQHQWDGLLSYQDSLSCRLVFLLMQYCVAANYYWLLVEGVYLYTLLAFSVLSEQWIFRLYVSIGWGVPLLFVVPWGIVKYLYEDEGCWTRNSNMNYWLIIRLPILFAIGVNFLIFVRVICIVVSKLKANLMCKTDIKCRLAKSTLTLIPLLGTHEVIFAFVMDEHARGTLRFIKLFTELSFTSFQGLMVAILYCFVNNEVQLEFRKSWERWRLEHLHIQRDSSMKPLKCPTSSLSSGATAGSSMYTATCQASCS

“Y[Aib]QGT[αMePhe(2-F)]TSD[4Pal][αMeS]I[αMeL]LD[Orn]K([AEEA-γGlu-C18 diacid])AA[Aib]EFI[dE][αMeY]LIEGGPSSGAPPPSGE-NH2 [Example 701]”: the EC50 on hGcgR came to 1.48 nM; at hGLP-1R [1], 0.22 nM; at hGLP-1R [2], 24.9 nM; at hGIPR [3] it was 0.01 nM; on human GcgR it was 226 nM; at hGIPR [4] it was 0.979 nM.
On to “H-Y[Aib]QGTFTSD[Phe(4-CN)]S[Orn][αMeL]LDKK([AEEA-AEEA-γGlu-C18 diacid])AQ[Aib]AFIEYLLE[Aib]GPSSGAPPPSGS-NH2 [Example 178]”, for which the EC50 at hGcgR (setting [5]) is 7.29 nM; on hGLP-1R [1] (setting [5]), 4.01 nM; on hGLP-1R [2], 397 nM; on hGIPR [3] (setting [5]) it was 0.34 nM; at human GcgR it was 816 nM; at hGIPR [4], 47.3 nM.
Consider `CC[C@H](C)[C@H](NC(=O)[C@H](Cc1ccccc1)NC(=O)[C@H](C)NC(=O)C(C)(C)NC(=O)[C@H](CCC(N)=O)NC(=O)[C@H](C)NC(=O)[C@H](CCCCNC(=O)COCCOCCNC(=O)CC[C@H](NC(=O)CCCCCCCCCCCCCCCCC(=O)O)C(=O)O)NC(=O)[C@H](CCCCN)NC(=O)[C@H](CC(=O)O)NC(=O)[C@H](CC(C)C)NC(=O)[C@H](CC(C)C)NC(=O)[C@H](CCC(=O)O)NC(=O)[C@](C)(CO)NC(=O)[C@H](Cc1ccc(O)cc1)NC(=O)[C@H](CC(=O)O)NC(=O)[C@H](CO)NC(=O)[C@@H](NC(=O)[C@](C)(Cc1ccccc1F)NC(=O)[C@@H](NC(=O)CNC(=O)[C@H](CCC(N)=O)NC(=O)C(C)(C)NC(=O)[C@@H](N)Cc1ccc(O)cc1)[C@@H](C)O)[C@@H](C)O)C(=O)N[C@@H](CCC(=O)O)C(=O)N[C@@H](Cc1ccc(O)cc1)C(=O)N[C@@H](CC(C)C)C(=O)N[C@@H](CCC(=O)O)C(=O)N[C@@H](CCC(=O)O)C(=O)NCC(=O)NCC(=O)N1CCC[C@H]1C(=O)N[C@@H](CO)C(=O)N[C@@H](CO)C(=O)NCC(=O)N[C@@H](C)C(=O)N1CCC[C@H]1C(=O)N1CCC[C@H]1C(=O)N1CCC[C@H]1C(=O)N[C@@H](CCC(=O)O)C(N)=O` [Example 467] (H-Y[Aib]QGT[αMePhe(2-F)]TSDY[αMeS]ELLDKK([AEEA-γGlu-C18 diacid])AQ[Aib]AFIEYLEEGGPSSGAPPPE-NH2), for which the EC50 amounted to 9.34 nM on hGcgR; 0.358 nM on hGLP-1R [1]; 36.4 nM at hGLP-1R [2]; 0.0855 nM on hGIPR [3]; 850 nM on human GcgR; 10.7 nM on hGIPR [4].
Turning to “H-Y[Aib]QGT[αMePhe(2-F)]TSD[4Pal]SILLD[Orn]K([γGlu-γGlu-C18 diacid])AQ[Aib]AFIEYLEEGGPSSGAPPPSGTGE-NH2 [Example 514]”, the EC50 at hGcgR was 6.68 nM; at hGLP-1R [1], 0.623 nM; at hGLP-1R [2] it was 82 nM; at hGIPR [3] it was 0.0744 nM; at human GcgR, 1150 nM; at hGIPR [4], 10 nM.
Take “H-Y[Aib]QGTFTSDYSI[αMeL]LDKQAAK([AEEA-AEEA-γGlu-C20 diacid])QFVEWLIA[Aib]GPSSGEPPPGEG-NH2 [Example 333]”: the half-maximal effective concentration (EC50) at hGcgR (setting [5]) is 7.09 nM; at hGLP-1R [1] (setting [5]), 0.705 nM; on hGLP-1R [2] it was 182 nM; on hGIPR [3] (setting [5]), 0.265 nM; at human GcgR it was 1410 nM; on hGIPR [4], 36.3 nM.
As for `CC[C@H](C)[C@H](NC(=O)[C@H](Cc1ccccc1)NC(=O)[C@H](C)NC(=O)C(C)(C)NC(=O)[C@H](CCC(N)=O)NC(=O)[C@H](C)NC(=O)[C@H](CCCCNC(=O)COCCOCCNC(=O)CC[C@H](NC(=O)CCCCCCCCCCCCCCCCCCC(=O)O)C(=O)O)NC(=O)[C@H](CCCCN)NC(=O)[C@H](CC(=O)O)NC(=O)[C@H](CC(C)C)NC(=O)[C@](C)(CC(C)C)NC(=O)[C@H](CCCN)NC(=O)[C@H](CO)NC(=O)[C@H](Cc1ccccc1)NC(=O)[C@H](CC(=O)O)NC(=O)[C@H](CO)NC(=O)[C@@H](NC(=O)[C@H](Cc1ccccc1)NC(=O)[C@@H](NC(=O)CNC(=O)[C@H](CCC(N)=O)NC(=O)C(C)(C)NC(=O)[C@@H](N)Cc1ccc(O)cc1)[C@@H](C)O)[C@@H](C)O)C(=O)N[C@@H](CCC(=O)O)C(=O)N[C@@H](Cc1c[nH]c2ccccc12)C(=O)N[C@@H](CC(C)C)C(=O)N[C@@H](CC(C)C)C(=O)N[C@@H](CCC(=O)O)C(=O)NCC(=O)NCC(=O)N1CCC[C@H]1C(=O)N[C@@H](CO)C(=O)N[C@@H](CO)C(=O)NCC(=O)N[C@@H](C)C(=O)N1CCC[C@H]1C(=O)N1CCC[C@H]1C(=O)N1CCC[C@H]1C(=O)N[C@@H](CO)C(=O)NCC(=O)N[C@@H](CCC(=O)O)C(N)=O` [Example 100], the EC50 turned out to be 13.1 nM at hGcgR (setting [5]); 3.21 nM at hGLP-1R [1] (setting [5]); 1190 nM at hGLP-1R [2]; 0.293 nM on hGIPR [3] (setting [5]); 2390 nM at human GcgR; 77.2 nM on hGIPR [4].
For the compound “Y[Aib]QGT[αMePhe(2-F)]TSD[4Pal][αMeS]I[αMeL]LD[Orn]K([AEEA-γGlu-C18 diacid])AQ[αMe4Pal]EFI[dE][αMeY]LIEGGPPS[Aib]EPPP[Orn]GE-NH2 [Example 1193]”, the EC50 on hGcgR (setting [6]) was determined as 1.56 nM; at hGLP-1R [1] (setting [6]), 0.544 nM; at hGLP-1R [2], 66.2 nM; at hGIPR [3] (setting [6]) it was 0.00897 nM; on human GcgR, 202 nM; on hGIPR [4] it was 0.803 nM.
Regarding `CC[C@H](C)[C@H](NC(=O)[C@H](CC(C)C)NC(=O)[C@H](Cc1ccc(O)cc1)NC(=O)[C@H](CCC(=O)O)NC(=O)[C@@H](NC(=O)[C@H](Cc1ccccc1)NC(=O)[C@H](CCC(=O)O)NC(=O)[C@](C)(Cc1ccncc1)NC(=O)[C@H](CCC(N)=O)NC(=O)[C@H](C)NC(=O)[C@H](CCCCNC(=O)CC[C@H](NC(=O)CC[C@H](NC(=O)CCCCCCCCCCCCCCCCC(=O)O)C(=O)O)C(=O)O)NC(=O)[C@H](CCCN)NC(=O)[C@H](CC(=O)O)NC(=O)[C@H](CC(C)C)NC(=O)[C@](C)(CC(C)C)NC(=O)[C@H](CCCN)NC(=O)[C@H](CO)NC(=O)[C@H](Cc1ccncc1)NC(=O)[C@H](CC(=O)O)NC(=O)[C@H](CO)NC(=O)[C@@H](NC(=O)[C@H](Cc1ccccc1)NC(=O)[C@@H](NC(=O)CNC(=O)[C@H](CCC(N)=O)NC(=O)C(C)(C)NC(=O)[C@@H](N)Cc1ccc(O)cc1)[C@@H](C)O)[C@@H](C)O)[C@@H](C)CC)C(=O)N[C@@H](C)C(=O)NCC(=O)NCC(=O)N1CCC[C@H]1C(=O)N[C@@H](CO)C(=O)N[C@@H](CO)C(=O)NCC(=O)N[C@@H](C)C(=O)N1CCC[C@H]1C(=O)N1CCC[C@H]1C(=O)N1CCC[C@H]1C(=O)N[C@@H](CO)C(=O)NCC(=O)N[C@@H](CO)C(=O)N[C@@H](CCC(=O)O)C(=O)N[C@@H](CCC(=O)O)C(N)=O` [Example 1001], the concentration for a half-maximal effect (EC50) came to 22.5 nM at hGcgR (setting [5]); 4.59 nM on hGLP-1R [1] (setting [5]); 295 nM on hGLP-1R [2]; 0.4 nM on hGIPR [3] (setting [5]); 1170 nM on human GcgR; 20 nM at hGIPR [4].
In the case of `CC[C@H](C)[C@H](NC(=O)[C@H](Cc1ccccc1)NC(=O)[C@H](C)NC(=O)C(C)(C)NC(=O)[C@H](CCC(N)=O)NC(=O)[C@H](C)NC(=O)[C@H](CCCCNC(=O)COCCOCCNC(=O)CC[C@H](NC(=O)CCCCCCCCCCCCCCCCC(=O)O)C(=O)O)NC(=O)[C@H](CCCCN)NC(=O)[C@H](CC(=O)O)NC(=O)[C@H](CC(C)C)NC(=O)[C@](C)(CC(C)C)NC(=O)[C@@H](NC(=O)[C@H](CO)NC(=O)[C@H](Cc1ccc(O)cc1)NC(=O)[C@H](CC(=O)O)NC(=O)[C@H](CO)NC(=O)[C@@H](NC(=O)[C@](C)(Cc1ccccc1)NC(=O)[C@@H](NC(=O)CNC(=O)[C@H](CCC(N)=O)NC(=O)C(C)(C)NC(=O)[C@@H](N)Cc1ccc(O)cc1)[C@@H](C)O)[C@@H](C)O)[C@@H](C)CC)C(=O)N[C@@H](CCC(=O)O)C(=O)N[C@@H](Cc1ccc(O)cc1)C(=O)N[C@@H](CC(C)C)C(=O)N[C@@H](CCC(=O)O)C(=O)N[C@@H](CCC(=O)O)C(=O)NCC(=O)NCC(=O)N1CCC[C@H]1C(=O)N[C@@H](CO)C(=O)N[C@@H](CO)C(=O)NCC(=O)N[C@@H](C)C(=O)N1CCC[C@H]1C(=O)N1CCC[C@H]1C(=O)N1CCC[C@H]1C(=O)N[C@@H](CO)C(=O)N[C@@H](CCC(=O)O)C(=O)NCC(N)=O` [Example 395], the concentration giving a half-maximal response (EC50) at hGcgR amounted to 5.55 nM; at hGLP-1R [1], 0.349 nM; at hGLP-1R [2] it was 34.7 nM; at hGIPR [3], 0.0248 nM; on human GcgR it was 1190 nM; on hGIPR [4], 6.69 nM.

The values above are taken from patent US20240270821A1, “GIP/GLP1/GCG TRI-RECEPTOR AGONISTS AND USES THEREOF” (priority 2023, published 2024).
